Reference: paper PMC9129912, “Characterization of a New Multifunctional GH20 β-N-Acetylglucosaminidase From Chitinibacter sp. GC72 and Its Application in Converting Chitin Into N-Acetyl Glucosamine” (Frontiers in Microbiology, 2022)

Tested on: T1, NAGaseA
T1 construct: whole ORF, 844 residues (2535 bp), pET-28a(+) NdeI/XhoI, His6-tag kept, E. coli BL21(DE3), Ni-NTA purified, ~92 kDa (92,379 Da with His6-tag); cloning primers encode N-terminal MNKPAG and C-terminal SRVVAV
Test: pNP release at […] nm, Lineweaver-Burk
Format: biochemical, Chitinibacter sp. GC72
Settings: 50 mM PBS pH 6.5, 40°C, 10 min, 50-2,500 μM substrate

Q: For `CC(=O)N[C@H]1[C@H](Oc2ccc([N+](=O)[O-])cc2)O[C@H](CO)[C@@H](O)[C@@H]1O` [pNP-GlcNAc], which Km is on record?
A: 40 µM
